One experiment has as its target T1, CD69 (Homo sapiens, UniProt Q07108).
T1 construct: purchased Bio-Synthesis Inc. (Lewisville, Tex.); host or cells: chemical synthesis
Put plainly: ELISA: binding of gliadin, casein peptides, SK and ethyl mercury to CD69 (inhibition of anti-CD69 binding). Conditions: for % Binding of Gliadin, Casein, Streptokinase, or Mercury to CD26 and CD69: CD69 coated wells, % inhibition of anti-CD69 binding to CD69; for ELISA O.D. at 492 nm: microwell coated with CD69 + competing antigen, peroxidase labeled rabbit anti-CD69. How it is done: (§1) Plates were incubated for one hour at 37° C. and washed five times for removal of unbound competing antigens. […] After proper incubation and washing, binding of these peptides and proteins to CD26 and CD69 was measured by addition of peroxidase substrate and measurement of color development at 492 nm.

The subject of another experiment is CD26. Put plainly: ELISA: binding of gliadin, casein peptides, SK and ethyl mercury to CD26 (inhibition of anti-CD26 binding). Conditions: for % Binding of Gliadin, Casein, Streptokinase, or Mercury to CD26 and CD69: CD26 coated wells, % inhibition in binding of anti-CD26 to CD26; for ELISA O.D. at 492 nm: microwell coated with CD26 + competing antigen, peroxidase labeled rabbit anti-CD26. The method, then:
as §1
For orientation: An ELISA detects its analyte on a solid surface through an enzyme-linked reagent.

Experiment [1] addresses CD69 antibody binding epitope … (human). Put plainly: competition ELISA, CD69-coated wells, read with peroxidase labeled rabbit anti-CD69.

As to Casein, on CD69, the “% Binding of Gliadin, Casein, Streptokinase, or Mercury to CD26 and CD69” value is 28%; the “ELISA O.D. at 492 nm” value amounted to 1.45 O.D. In the experiment with CD26, the “% Binding of Gliadin, Casein, Streptokinase, or Mercury to CD26 and CD69” value amounted to 44%; the “ELISA O.D. at 492 nm” value is on record as 1.34 O.D.
Taken in the same sequence, the figures for streptokinase [SK] were 86%, 0.48 O.D, 77% and 0.72 O.D.

B1: Streptokinase (SK), P00779 27-440 (protein)
chain: IAGPEWLLDRPSVNNSQLVVSVAGTVEGTNQDISLKFFEIDLTSRPAHGGKTEQGLSPKSKPFATDSGAMSHKLEKADLLKAIQEQLIANVHSNDDYFEVIDFASDATITDRNGKVYFADKDGSVTLPTQPVQEFLLSGHVRVRPYKEKPIQNQAKSVDVEYTVQFTPLNPDDDFRPGLKDTKLLKTLAIGDTITSQELLAQAQSILNKNHPGYTIYERDSSIVTHDNDIFRTILPMDQEFTYRVKNREQAYRINKKSGLNEEINNTDLISEKYYVLKKGEKPYDPFDRSHLKLFTIKYVDVDTNELLKSEQLLTASERNLDFRDLYDPRDKAKLLYNNLDAFGIMDYTLTGKVEDNHDDTNRIITVYMGKRPEGENASYHLAYDKDRYTEEEREVYSYLRYTGTPIPDNPNDK
B1 yielded a % Binding of Gliadin, Casein, Streptokinase, or Mercury to CD26 and CD69 (% inhibition of anti-CD69 binding) in experiment [1] of 86%.

Values taken from patent US7252957B2, “Identification of etiology of autism” (Immunosciences Lab., Inc., priority 2004, dated 2007).
